Measured values published in patent publication EP1276895B1, “METHOD FOR THE IDENTIFICATION OF ACTIVE SITE PROTEASE INACTIVATORS” (THE UNIVERSITY OF GEORGIA RESEARCH FOUNDATION, INC., priority 2000, dated 2001).
Residues, ends and D or L forms follow the SMILES beside them. *: point of attachment. AFC = O=c1cc(C(F)(F)F)c2ccc(N*)cc2o1; Cbz = O=C(OCc1ccccc1)*; CH2F = FC*

Columns and labels:
Assay type in all cases: biochemical
[1] = system: purified Taenia solium cysteine protease; assay: Differential cleavage (selectivity) test, T. solium protease
Description: (§1) In order to perform the assay, the vehicle (for Step VI) or inhibitor (for Step IX) were incubated with the appropriate substrate in the correct assay buffer and allowed to equilibrate. Subsequently, the protease was added, and the assay was allowed to incubate for an appropriate time. The concentrations used in this experiment were as follows: Vehicle was set up at 4 X 10^-5 M in final assay buffer; Inhibitor was set up at 3 X 10^-10 M in the final assay buffer. Accordingly, the dosages employed should be the minimal amount of vehicle or inhibitor necessary to induce inhibition. […] Substrates were set up based upon the preferred substrate for cleavage of the particular enzyme.
(§2) Positive controls were set up similarly as described for test controls, except that solvent was added in substitution for the inhibitor or vehicle (in a volume equal to the volume of inhibitor or vehicle addition). All of the inhibitors and vehicles could be dissolved in dimethylsulfoxide (DMSO), and therefore, this was the solvent of choice. Negative controls were set up by adding the inhibitor or vehicle and the preferred substrates in a tube without the protease. All potential non-proteolytic liberation of AFC was therefore controlled for in this tube (a feature which also insured stability of the AFC substrates, since these substrates will freely liberate AFC when unstable).
(§3) All controls were set up in triplicate, and experiments were repeated a minimum of five times.
(§4) Percent inhibition was calculated as: % Inhibition = ((AFC positive for ʺSIʺ-AFC negative for ʺSIʺ)-(AFC test-AFC negative for ʺSIʺ))/(AFC positive for ʺSIʺ-AFC negative for ʺSIʺ) × 100 [formula] In this preliminary test, we employed the following human-derived enzymes (with indicated mechanistic class): Cathepsin B (cysteine), Cathepsin L (cysteine), Cathepsin H (cysteine), Cathepsin D (aspartic) Trypsin (serine), the purified Taenia solium cysteine protease, and the Taenia solium crude mix. Cathepsin B was prepared in an assay buffer of 10 mM L-cysteine in 0.4 M Citrate buffer, pH 6.1, using Z-ARR-AFC as the cleavage substrate. Cathepsin L was prepared in an assay buffer of 10 mM L-cysteine in 0.4 M Citrate buffer, pH 5.5, using Z-FR-AFC as the cleavage substrate. Cathepsin H was prepared in an assay buffer of 10 mM L-cysteine in 0.15 M PBS buffer, pH 6.8, using L-R-AFC as the cleavage substrate. Cathepsin D was prepared in an assay buffer of 0.15 M PBS, pH 7.1, using Z-RGFFP-AFC as the cleavage substrate. Trypsin was prepared in an assay buffer of 0.15 M PBS, pH 8.0, supplemented with 100 mM CaCl2 and with Z-R-AFC as the cleavage substrate. Enzyme was incubated so that it was at least 50 times less than the concentration of substrate in order to insure saturating conditions.

Cathepsin L (cysteine) = Cathepsin L (cysteine) (Homo sapiens, UniProt P07711); assay: Differential cleavage (selectivity) test, Cathepsin L; details: 0.4 M Citrate pH 5.5, 10 mM L-cysteine, substrate Z-FR-AFC
Cathepsin L (cysteine), sequence (P07711 114-333): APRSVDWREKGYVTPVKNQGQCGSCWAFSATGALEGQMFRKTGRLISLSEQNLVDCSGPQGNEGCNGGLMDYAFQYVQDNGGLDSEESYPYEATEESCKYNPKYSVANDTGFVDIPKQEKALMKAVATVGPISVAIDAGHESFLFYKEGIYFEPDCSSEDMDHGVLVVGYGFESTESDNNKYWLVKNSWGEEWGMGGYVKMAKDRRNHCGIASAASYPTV
Description: as §1, §2, §3, §4

Cathepsin D (aspartic) = Cathepsin D (aspartic) (Homo sapiens, UniProt P07339); assay: Differential cleavage (selectivity) test, Cathepsin D; details: 0.15 M PBS pH 7.1, substrate Z-RGFFP-AFC; for inhibition at 0.0003 µM: inhibitor 3 X 10^-10 M
Cathepsin D (aspartic), sequence (P07339 65-412): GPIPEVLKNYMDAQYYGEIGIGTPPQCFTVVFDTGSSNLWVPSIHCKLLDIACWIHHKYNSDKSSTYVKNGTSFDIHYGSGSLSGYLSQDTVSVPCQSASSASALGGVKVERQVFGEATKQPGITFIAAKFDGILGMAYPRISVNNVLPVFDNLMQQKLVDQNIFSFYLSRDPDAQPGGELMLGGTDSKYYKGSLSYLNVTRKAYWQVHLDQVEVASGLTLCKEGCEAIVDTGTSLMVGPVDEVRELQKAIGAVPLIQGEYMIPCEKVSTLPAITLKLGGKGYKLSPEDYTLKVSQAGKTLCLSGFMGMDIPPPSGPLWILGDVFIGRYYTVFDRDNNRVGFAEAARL
Description: as §1, §2, §3, §4

[2] = system: purified Taenia solium cysteine protease; assay: Substrate cleavage screen of AFC-linked synthetic substrates (Step II), purified protease; details: 1 ug purified protease, 1 ug substrate, Citrate pH 4.9 with 0.01 M cysteine, 18 h, 37 °C
Description: In this step, the most efficacious substrate for detection of the cysteine protease (high Kcat substrate) was determined in vitro along with those substrates which were not well cleaved (low kcat substrates). From this point forth, the following conditions refer to all assays: "assay buffer" refers to 0.4 M Citrate, pH 4.9 (the pH optima of the protease). Incubation time was 18 hours at 37°C. These conditions were determined by our preliminary data to be best for kinetic evaluation of the protease. […] The experiments were conducted in […] Borosilicate mini-culture tubes (Fisher Scientific), and a fluorometer (Turner) was employed for detection of AFC cleavage.
Approximately 1 ug (or a proteolytically detectable amount) of the purified target cysteine protease was incubated individually, with 1 ug of each of the available substrates in 500 uL of assay buffer. During this setup, the substrate was pre-incubated in the assay buffer for a short period of time (20 minutes) in order to reach an equilibrated status before the addition of the protease. Cleavage assessments were based upon the property of the protease to cleave synthetic peptide substrates linked at the C-terminus to 7-Amino-4-Trifluoromethyl Coumarin (AFC) as previously described. AFC linked tripeptides, dipeptides, and monopeptides, (with a variety of permutations at P3-P1) were available from Enzyme Systems Products (Livermore, CA), and were used as the source of the subset. Following incubation of enzyme preparations overnight (18 h, 37 °C) with peptide in assay buffer (Citrate, pH 4.9, supplemented with 0.01 M cysteine), free AFC concentrations were measured fluorometrically (excitation 405 nm, emission 505 nm). The proteolytic cleavage released the AFC group, which was measurable as a free molecule by a standard fluorometer and converted into molar quantities, based upon a previously established standard curve. The simplicity of AFC detection by the fluorometer was a key factor which quickened and simplified the procedures.
In the assay, 1 ug of the purified Taenia cysteine protease was added to a saturating amount of Z-Phe-Arg-AFC (4X10^-5 M) in assay buffer. The experiment was conducted in triplicate and repeated at least 5 times until we were certain that variability in AFC cleavage was not statistically significant.
Vmax was calculated for the cleavage of substrates by the purified target protease and Vmax was calculated for substrates cleaved by the crude mix protease using conventional kinetic modeling calculations already described in the art.

[3] = inhibitor 3 X 10^-10 M, 0.0003 µM

| Molecule | % Inhibition ([1]; inhibitor 3 X 10^-10 M) | inhibition at 0.0003 µM (Cathepsin L (cysteine); inhibitor 3 X 10^-10 M) | % Inhibition (Cathepsin L (cysteine); [3]) | inhibition at 0.0003 µM (Cathepsin D (aspartic)) | cleavage of AFC-linked substrate (Vmax) [2] | % Inhibition ([1]; vehicle 4 X 10^-5 M) | inhibition at 40 µM (Cathepsin L (cysteine); vehicle 4 X 10^-5 M) | inhibition at 40 µM (Cathepsin D (aspartic); vehicle 4 X 10^-5 M) | cleavage of AFC-linked substrate (Vmax) ([2]; listed as M-LY-AFC) | % Inhibition (Cathepsin L (cysteine); vehicle 4 X 10^-5 M) | % Inhibition (Cathepsin L (cysteine); vehicle 4 X 10^-5 M, 40 µM) | % Inhibition (Cathepsin D (aspartic); vehicle 4 X 10^-5 M, 40 µM) |
| --- | --- | --- | --- | --- | --- | --- | --- | --- | --- | --- | --- | --- |
| CC(C)C[C@H](NC(=O)[C@H](CC(C)C)NC(=O)[C@H](CC(C)C)NC(=O)OCc1ccccc1)C(=O)CF [Z-LLL-FMK, Z-Leu-Leu-Leu-fluoromethylketone] (Cbz-Leu-Leu-Leu-CH2F) | 98% | 50% | almost half of the inhibition of the Taenia solium cysteine protease | 0% | – | – | – | – | – | – | – | – |
| CC(C)C[C@H](NC(=O)OCc1ccccc1)C(=O)N[C@@H](CC(C)C)C(=O)N[C@@H](CC(C)C)C(=O)Nc1ccc2c(C(F)(F)F)cc(=O)oc2c1 [Z-LLL-AFC, Z-Leu-Leu-Leu-AFC] (Cbz-Leu-Leu-Leu-{AFC}) | – | – | – | – | noncleavable | 68% | 0% | 0% | – | – | – | – |
| CC(C)C[C@H](NC(=O)OCc1ccccc1)C(=O)N[C@@H](CC(C)C)C(=O)N[C@@H](Cc1ccc(O)cc1)C(=O)Nc1ccc2c(C(F)(F)F)cc(=O)oc2c1 [Z-LLY-AFC, Z-Leu-Leu-Tyr-AFC] (Cbz-Leu-Leu-Tyr-{AFC}) | – | – | – | – | noncleavable | 70% | 0% | 0% | – | – | – | – |
| CC(C)C[C@H](NC(=O)OCc1ccccc1)C(=O)N[C@@H](CC(C)C)C(=O)N[C@@H](Cc1ccc(O)cc1)C(=O)CF [Z-LLY-FMK, Z-Leu-Leu-Tyr-FMK] (Cbz-Leu-Leu-Tyr-CH2F) | 62% | 0% | did not inhibit cathepsin L at all | 0% | – | – | – | – | – | – | – | – |
| Mu-Leu-Tyr-AFC [Mu-LY-AFC] | – | – | – | – | not cleaved | 75% | – | – | noncleavable | 25% | subtle inhibition | 0% |
